Reference: patent US7507395B2, “Methods of using fluorescent pH indicators for intracellular assays” (MDS Analytical Technologies (US) Inc., priority 2001, dated 2009)

Tests used:
[1] = pH buffer series, final concentration 1.0 μM, Gemini XS fluorescence plate reader
Source text: The excitation and emission spectra of the aqueous solutions are obtained with a Gemini XS fluorescence plate reader (Molecular Devices Corporation; Sunnyvale, Calif.).

M1CHO cells [2] = assay: Pirenzapine inhibition of carbachol-mediated stimulation of M1CHO cells (intracellular pH); type: cell-based; details: pirenzapine 0.1, 0.3, 1.0 μM, carbachol 1 μM
Experimental: M1CHO Cells, 50,000, in 40 μL are seeded and incubated at 37° C., 5% CO2 overnight in a 96-well microplate. To each well is added 10 μL of the Loading Buffer (as described in Examples 19 and 20) including a fluorescein diacetate compound of the invention and a nonfluorescent quenching dye. After 45 min at room temperature 5 μL of 220 mM ammonium chloride, in combination with pirenzapine to a final concentration of 0.0 μM, 1.0 μM, 0.3 μM, and 0.1 μM. […] A drop in fluorescence signal is observed at time=10 to 20 seconds, corresponding to a drop in signal due to the increased acidification of the cells. The low pH stimulates the Na^+/H^+ exchange pump.

M1CHO cells [3] = assay: Effect of increasing concentrations of carbachol on M1CHO cells (intracellular pH); type: cell-based; details: carbachol 6.7 μM or 0 μM, after ammonium chloride
Experimental: M1CHO cells, 50,000, in 40 μL were seeded and incubated at 37° C., 5% CO2 overnight in a 96-well microplate. To each well is added 10 μL of the Loading Buffer (as described in Examples 19 and 20) including a fluorescein diacetate compound of the invention and a nonfluorescent quenching dye. After 45 min at room temperature, 5 μL of 220 mM ammonium chloride is added. […] A drop is fluorescence signal is observed at time=10 to 20 seconds due to the increased acidification of the cells. The low pH stimulates the Na^+/H^+ exchange pump.
For Compounds 19 and 20, emission is monitored at 550 nm and excitation is monitored at 505 and 470 nm.

MCF7/ADR cells = assay: Drug Resistance Assay: insulin on MCF7/ADR cells (intracellular pH); type: cell-based; details: 0.003-150 nM insulin, after NH4Cl acid load, FIG. 6
Experimental: MCF7/ADR cells are MCF7 mammary gland adenocarcinoma selected for adriamycin resistance. These cells are propagated and maintained in DMEM medium containing 5% FCS, 1× Pen/Strep, 2 mM L-glutamine, and non-essential amino acids. The assay is performed according to the following procedure.
The cells are then incubated in a 37° C. CO2 incubator overnight.
A 25 mM stock solution of a Masking Compound is prepared by dissolving an appropriate amount of the desired Masking Compound in 10 mL water.
The cell plate is removed from the incubator, and all wells are washed once with 1× Assay Buffer, leaving 40 μL of buffer in each well. The cell plate is then incubated at 37° C. for at least 4 hours.
A stock solution of insulin is prepared by dissolving 1 mg of insulin in 1 mL of 1 M HCl to a concentration of 174 μM. A 5 μL aliquot of the insulin stock solution is diluted with 4,574 μL H+H/2 mM probenecid/0.1% BSA solution (190 nM stock, 150 nM final concentration). Three-fold dilutions are performed 11 times to obtain final concentrations of 0.003, 0.008, 0.02, 0.07, 0.2, 0.6, 1.9, 5.6, 17, 50, and 150 nM, respectively.

[4] = background statement; cited from earlier work
CHO/CCR5/Galphaqi5 cells = assay: Effect of increasing concentrations of RANTES on CHO/CCR5/Galphaqi5 cells (intracellular pH); type: cell-based; details: RANTES 2-500 nM, after ammonium chloride
Experimental: CHO/CCR5/Galphaqi5 cells, 80,000, in 40 μL are seeded and incubated at 37° C., 5% CO2 overnight in a 96-well microplate. To each well is added 10 μL of Loading Buffer (as described in Examples 19 and 20) including a fluorescein diacetate compound of the invention and a nonfluorescent quenching dye. After 45 min at room temperature 5 μL of 220 mM ammonium chloride is added. Following an additional 15 min incubation at room temperature, 200 μL of buffer containing RANTES to a final concentration of 500, 167, 56, 19, 6, 2, or 0 nM is added using the fluidics module on a fluorescence microplate reader (10 seconds after the start of the experiment) and fluorescence readings are recorded. A drop in fluorescence signal is observed at time=10 to 20 seconds, corresponding to an increased acidification of the cells. The low pH stimulates the Na+/H+ exchange pump.

## 2′,7′-diethyl-5-(or 6-)carboxyfluorescein [Compound 4]
[1]
  calculated pKa (acid dissociation constant): 6.96

## CN1CCN(CC(=O)N2c3ccccc3C(=O)Nc3cccnc32)CC1 [Pirenzapine]
M1CHO cells [2]
  effect on carbachol-mediated stimulation: inhibits the carbachol-mediated stimulation

## C[N+](C)(C)CCOC(N)=O [carbachol]
M1CHO cells [3]
  activity of the Na+/H+ exchange pump / alkalinization of the cells: increases the activity of the pump, resulting in a greater alkalinization of the cells in a dose:dependent manner

## insulin
MCF7/ADR cells
  activity of the Na+/H+ exchange pump / alkalinization of the cells: increases the activity of the pump, resulting in a greater alkalinization of the cells in a dose-dependent manner

## 2′,7′-bis-(2-carboxyethyl)-5-(and-6)-carboxyfluorescein [BCECF]
[4]
  pKa: 7.0

B1: RANTES (protein, UniProt P13501 24-91, looked up)
C-C motif chemokine 5: SPYSSDTTPCCFAYIARPLPRAHIKEYFYTSGKCSNPAVVFVTRKNRQVCANPEKKWVREYINSLEMS
notes: RANTES, added to CHO/CCR5/Galphaqi5 cells at increasing concentrations
CHO/CCR5/Galphaqi5 cells
  activity of the Na+/H+ exchange pump / alkalinization of the cells: increases the activity of the pump, resulting in a greater alkalinization of the cells in a dose:dependent manner
